Source: patent publication US8664221B2 (Santen Pharmaceutical Co., Ltd., priority 2008, dated 2014)

Legend:
[1] = system: IL-6 production induced by lipopolysaccharide (LPS) in human corneal epithelial cells (HCE-T); test: Inhibition of LPS-induced IL-6 production in human corneal epithelial cells (GR agonist activity); type: cell-based; details: Corneal epithelial cell, 10 μL of 100 μM test compound solution per well, 4 hours incubation, efficacy relative to DEX
Method: In order to evaluate a GR agonist activity of the present compound, the inhibitory effects on the IL-6 production induced by lipopolysaccharide (LPS) in human corneal epithelial cells. IL-6 levels in the conditioned medium were measured using the HTRF human IL-6 Kit (boehringer-Ingelheim, Cat No. 62IL6PEB), and the procedure was carried out according to the protocol attached to the kit. Hereinafter, the specific method will be described.
LPS solution: After LPS was dissolved in phosphate buffer solution (hereinafter referred to as PBS(−)), the resulting solution was diluted with 10% FBS-DMEM/F12 medium, whereby a 1 μg/mL LPS solution was prepared.
After a test compound was dissolved in dimethylsulfoxide (hereinafter referred to as DMSO), the resulting solution was diluted with 10% FBS-DMEM/F12 medium, whereby a 100 μM test compound solution was prepared. A 100 μM DEX solution was prepared by the same method, and the inhibitory ratio of IL-6 production of DEX was evaluated to use for calculating efficacy (% DEX).
Used cell: SV40-immortalized human corneal epithelial cells (HCE-T) (RIKEN)
1) HCE-T cells were harvested, and seeded at 2.0×10^4 cells/0.1 mL/well in a 96-well plate.
2) After incubation overnight, the medium was removed and a 80 μL of new 10% FBS-DMEM/Ham's F12 medium was added into each well.
3) A 10 μL of test compounds solution was added into each well.
4) A 10 μL of LPS solution was added into each well.
5) As a negative control, a 10 μL of 10% FBS-DMEM/Ham's F12 medium was added into each well instead of a test compound solution and a LPS solution.
6) As a positive control, a 10 μL of 10% FBS-DMEM/Ham's F12 medium containing 1% DMSO was added into each well instead of a test compound solution.
7) After 4 hours incubation, supernatants were collected and IL-6 levels in the supernatants were quantitated using the HTRF human IL-6 Kit.
8) The inhibition ratio of IL-6 production (%) was calculated according to the following equation.
The inhibition ratio of IL-6 production (%) was calculated according to the following equation. The inhibition ratio of IL-6 production (%)=100×{1−(IL-6 level in each group−mean value of IL-6 level in negative control)/(mean value of IL-6 level in positive control−mean value of IL-6 level in negative control)} (%)
Furthermore, the inhibition ratio of IL-6 production (efficacy (% DEX)) was also calculated according to the following equation. Efficacy(% DEX)=100×{(mean value of IL-6 inhibition in compound-treated group)/(mean value of IL-6 inhibition in DEX-treated group)} (%) (Results and Discussion)

[2] = system: allergic conjunctivitis model in mice; test: Inhibitory effect on vascular hyper-permeability in allergic conjunctivitis model; type: in vivo; details: male BALB/c mice, ovalbumin-sensitized; 1% (W/V) suspension instilled 15 min, 1 hr and 3 hrs before ovalbumin; Evans blue dye leakage; mean of 6 eyes
Method: In order to evaluate anti-allergic effect of the present compound, the inhibitory effect on the vascular hyper-permeability in allergic conjunctivitis model in mice was examined. This effect was calculated based on dye leakages of vehicle-treated group (control group) and test compound-treated group.
By adding 0.5% polysorbate 80/saline to the test compound, a 1% (W/V) test compound suspension was prepared.
1) Ovalbumin absorbed on aluminum hydroxide gel was dissolved in saline (20 μg ovalbumin/mL), and male BALB/c mice, 6 weeks old, were actively sensitized to the antigen by intraperitoneal injections of 500 μL of it.
2) On the 6th day from sensitization, sensitized mice were boosted by additional intraperitoneal injections of 500 μL ovalbumin absorbed on aluminum hydroxide gel (20 μg ovalbumin/mL).
3) On the 11th day, 12th day, 13th day, 14th day and 15th day from the first sensitization, allergic conjunctivitis were induced by instillations to the right eyes of the mice of […] of 50% glycerol solution containing 15% (W/V) ovalbumin.
4) […] of test compound suspension per eye was instilled to the right eye of the above mice 15 min, 1 hr and 3 hrs before ovalbumin instillation (three times) on the 15th day from sensitization. In vehicle-treated group (control group), the mice were instilled with 0.5% polysorbate 80/saline in substitution for test compound suspension.
5) Just before ovalbumin instillation on the 15th day from sensitization, all animals received a tail intravenous injection of 0.1% Evans blue dye. The right periocular tissues of the mice, which were the leaked parts of dye, were collected 30 min after ovalbumin instillation. The dye was extracted from the tissues with the dye extraction liquid. Then the absorbance of the dye extract was measured. The dye leakage was calculated from the absorbance value, and the inhibition ratio of the vascular hyper-permeability of test compound-treated group was calculated according to calculation equation 1. The inhibition ratio of the vascular hyper-permeability of test compound-treated group (%)=(1−Ax/Ao)×100 (Calculation Equation 1) • Ao: Dye leakage in vehicle-treated group (control group) • Ax: Dye leakage in test compound-treated group (Test Results and Discussion)

[3] = system: choroidal neovascularization (CNV) model in rats; test: Laser induced choroidal neovascularization model; type: in vivo; details: Brown Norway male rats; 1% (w/v) eye drops four times a day or 20 mg/mL subconjunctival injection (route not given); fluorescein angiography 7 days after laser; mean of 7-8 eyes
Method: The choroidal neovascularization (CNV) model in rats is known as one of the popular methods for evaluating the CNV inhibitory effect of drugs. This method is reported in Graefe's Arch. Cli. Exp. Ophthalmol., 235, 313-319 (1997). According to this method, the CNV examinations were performed to evaluate the CNV inhibitory effect of test compounds by comparing the incidence rates of CNV in vehicle group (control group) with test compound-treated groups.
For eye drop administration, a 1% (w/v) test compound suspension was prepared by adding 0.5% polysorbate 80/saline to the test compound. For subconjunctival injection, a 20 mg/mL test compound suspension was prepared by adding 0.5% hydrogenated castor oil/saline to the test compound.
1) Brown Norway male rats (7-8 weeks) were anesthetized with intramuscular injection (1 mL/kg) of the mixed solution (5% ketamine HCl:2% xylazine HCl=7:1).
2) After mydriasis using tropicamide phenylephrine hydrochloride eye drops (trade name Mydrin P), laser photocoagulation of bruch's membrane in rats was performed with krypton laser photocoagulation machine. Laser irradiation was performed at 8 points per eye avoiding thick retinal blood vessels in ocular fundus and focusing on the depth of retina. The conditions were 100 μm spot size, 100 mW power, 0.1 second duration.
3) After laser photocoagulation, photographs of ocular fundus were taken and the laser photocoagulation (laser irradiation) points were confirmed.
1) In case of eye drops administration, a test compound suspension was administrated four times a day from laser irradiation day (the 1st day) to the 8th day. In case of subconjunctival injection, a 50 μL test compound suspension was injected into conjunctivae just after laser irradiation.
2) In vehicle group (control group), 0.5% polysorbate 80/saline or 0.5% hydrogenated castor oil/saline was used instead of a test compound suspension. And the test was performed according to the method 1).
1) 7 days after laser irradiation, 0.1 mL of 10% fluorescein was injected into rat tail vein and fluorescein angiography was performed.
2) When the fluorescent leakage was not detected in the fluorescent angiography, the spot was judged to be a negative spot. When the fluorescent leakage was detected, the spot was judged to be a positive spot. When the fluorescent leakage was detected as a little leakage, two spots were counted as one positive spot.
3) The neovascular incidence rate was calculated according to the equation 1. According to the equation 2, the ratio of neovascular incidence rate in test compound group to vehicle group was calculated. Neovascular incidence rate (%)=(Positive spots/all spots)×100 (Equation 1) Angiogenic inhibition ratio in test compound group (%)=(1−Ax/Ao)×100 (Equation 2)
Ao: Neovascular incidence rate in vehicle group (control group)
Ax: Neovascular incidence rate in test compound group

[4] = system: carrageenan-induced paw edema model in rats; test: Carrageenan-induced paw edema model; type: in vivo; details: female Lewis rat; 10 mg/kg oral, 30 minutes before carrageenan; paw volume 3 hr after injection; read-out: Inhibition ratio of paw edema (%)
Method: The inhibitory effect for paw edema using carrageenan-induced paw edema model in rats is known as one of the general methods for testing the inhibitory effect on inflammation on the joint and the like. Therefore, the inhibitory effect of the present compound for paw edema was carried out, the inhibition rate of paw edema was calculated, and then the anti-inflammatory effect of the present compound was evaluated based on the rate. The concrete method of the test is described below.
A 2 mg/mL test compound suspension was prepared by adding 1% methyl cellulose (base) to the test compound.
1) The weight and right hind paw volume of female Lewis rat (8˜10 weeks) were measured before drug administration.
2) The test compound suspension was administered at 10 mg/kg to the test compound group. Meanwhile, 1% methyl cellulose was administered orally at 5 mL/kg to the sham-operation group and vehicle group (control group).
3) After 30 minutes from oral administration, 0.1 mL of a 1% w/v carrageenan/distilled water solution was subcutaneously injected into right foot pad. 0.1 mL of distilled water was subcutaneously injected for sham-operation group.
4) The right hind paw volume was measured 3 hr after injection of carrageenan or distilled water.
(Formulation Concerning Estimation of Drug Activity) The increase ratio of paw volume (%)=100×(right hind paw volume 3 hr after injection of carrageenan or distilled water (mL)−right hind paw volume before the test compound administration (mL))/right hind paw volume before the test compound administration (mL) (Calculation Equation 1) The inhibition ratio of paw edema (%)=100−100×(the increase ratio of paw volume of each test compound group (%)−the increase ratio of paw volume of sham-operation group (%))/(the increase of paw volume of vehicle group (%)−the increase of paw volume of sham-operation group (%)) (Calculation Equation 2) (Test Results and Discussion)

Compound | Emax [1] [%] | The inhibition ratio of the vascular hyper-permeability (%) [2] [%] | Angiogenic inhibition ratio (%) [3] [%] | inhibition in vivo at 10 mg/kg [4] [%]
COc1cc(OS(C)(=O)=O)ccc1-c1ccc2c(c1COc1cc(F)ccc1C)N(C)C(=O)C(C)(C)N2 [Compound No. 1-1, 8-(5-Fluoro-2-methylphenoxymethyl)-7-(2-methoxy-4-methylsulfonyloxyphenyl)-1,3,3-trimethyl-3,4-dihydro-1H-quinoxalin-2-one] | 92 | 36 | 31 | 
COc1cc(OS(=O)(=O)C2CC2)ccc1-c1ccc2c(c1COc1cc(F)ccc1C)N(C)C(=O)C(C)(C)N2 [Compound No. 1-13, 7-(4-Cyclopropylsulfonyloxy-2-methoxyphenyl)-8-(5-fluoro-2-methyl-phenoxymethyl)-1,3,3-trimethyl-3,4-dihydro-1H-quinoxalin-2-one] | 100 |  | 38 | 67
CCCS(=O)(=O)Oc1ccc(-c2ccc3c(c2COc2cc([N+](=O)[O-])ccc2C)N(C)C(=O)C(C)(C)N3)c(OC)c1 [Compound No. 1-38, 7-(2-Methoxy-4-propylsulfonyloxyphenyl)-8-(2-methyl-5-nitrophenoxy-methyl)-1,3,3-trimethyl-3,4-dihydro-1H-quinoxalin-2-one] | 94 |  | 33 | 50
COc1cc(OS(=O)(=O)C2CCCC2)ccc1-c1ccc2c(c1CNc1cc(F)ccc1C)N(C)C(=O)C(C)(C)N2 [Compound No. 1-43, 7-(4-cyclopentylsulfonyloxy-2-methoxyphenyl)-8-(5-fluoro-2-methyl-phenylaminomethyl)-1,3,3-trimethyl-3,4-dihydro-1H-quinoxalin-2-one] | 82 |  | 18 | 
COc1ccccc1NCc1c(-c2ccc(OS(=O)(=O)C3CC3)cc2OC)ccc2c1N(C)C(=O)C(C)(C)N2 [Compound No. 2-2, 7-(4-Cyclopropylsulfonyloxy-2-methoxyphenyl)-8-(2-methoxy-phenylaminomethyl)-1,3,3-trimethyl-3,4-dihydro-1H-quinoxalin-2-one] | 86 |  | 41 | 51
